Numbers after ± are expanded uncertainties.
Tests used:
[1] = molar heat capacity at constant pressure; wn = mass fraction of the nth substance listed; conditions: 96.2 kPa, Liquid, DSC, w1 = 0.3
[2] = wn = mass fraction of the nth substance listed; conditions: 96.2 kPa, Liquid, w1 = 0.3; for viscosity: Cone and plate viscometry; for mass density: Pycnometric method; for thermal conductivity: transient hot wire

CC(O)CO (stereo unspecified) [1,2-propanediol] + O
Conditions | mass density, [2] [kg/m3] | molar heat capacity at constant pressure, [1] [J/K/mol] | thermal conductivity, [2] [W/m/K] | viscosity, [2] [mPa·s]
293.15 K | 1023.1 ± 1.1 | 89.44 ± 4.1 | 0.443 ± 0.013 | 3.02 ± 0.09
303.15 K | 1019.2 ± 1.1 | 90 ± 4.2 | 0.454 ± 0.014 | 2.2 ± 0.07
313.15 K | 1014.5 ± 1.1 | 90.52 ± 4.2 | 0.463 ± 0.014 | 1.61 ± 0.05
323.15 K | 1009 ± 1.1 | 91.03 ± 4.2 | 0.472 ± 0.014 | 1.31 ± 0.04
